Experimental data published in patent US20170065556A1, “ORAL FORMULATIONS OF PYRROLIDINE DERIVATIVES” (OBSEVA S.A., priority 2013, published 2017).

Experiments:
[1] = female, human, in vivo, 20 h
Description: Twelve healthy Caucasian women aged 54-62 years (mean 58.3 years), with a weight of 51 to 67 kg (mean 60.6 kg±5.1) and a body mass index ranging between 19.4-25.5 kg/m2 (mean 23.12 kg/m2±2.05) were enrolled. They were administered, on three separate treatment periods of one week, either two consecutive (3Z,5S) doses of 600 mg/day (administered to subjects using 3 dispersible tablets of 200 mg in 150 ml of water) or two intramuscular injections of 12 mg/day betamethasone or both drugs in combination.
Therefore, pharmacokinetic parameters of the treatment with (3Z,5S) dispersible tablets were calculated for 12 subjects, whereas pharmacokinetic parameters of the combination treatment were assessed for 11 participants.
During each treatment period of one week, blood samples were collected for the analysis of (3Z,5S) and betamethasone at time points 0 (pre-dose) and at 0.25, 0.5, 0.75, 1, 1.5, 2, 3, 4, 6, 8, 10, 12, 16, 20 and 24 hours after first dose on day 1. The plasma was prepared and stored below −20° C. All samples were analysed using validated LC-MS/MS methods. For the analysis of (3Z,5S), the lower limit of quantification was 1.0 ng/ml. For betamethasone analyses, the lower limit of quantification was 0.5 ng/ml.
Pharmacokinetic parameters were estimated by non-compartmental methods using the Phoenix® WinNonLin® version 6.3 (Pharsight). […]

[2] = Qualitative solubility/crystallisation tests in solvents (15 mg scale); assay type: physicochemical

Compound: CO/N=C1/C[C@@H](CO)N(C(=O)c2ccc(-c3ccccc3C)cc2)C1 [(3Z,5S), (3Z,5S)-5-(hydroxymethyl)-1-[(2′-methyl-1,1′-biphenyl-4-yl)carbonyl]pyrrolidin-3-one-O-methyloxime]
- % of Cmax [1]: 25%
- Qualitative solubility, Dissolves in ([2]; solvent DIPE): 40 vol hot
- Qualitative solubility, Dissolves in ([2]; solvent IPA): 4 vol hot
- Qualitative solubility, Dissolves in ([2]; solvent MIBK): 4 vol hot
- Qualitative solubility, Dissolves in ([2]; solvent THF): 4 vol cold
- Qualitative solubility, Dissolves in / Comment ([2]; solvent heptanes): insoluble in 20 vol
- Qualitative solubility, Dissolves in ([2]; solvent tBuOH): 6 vol hot
- Qualitative solubility, Dissolves in ([2]; solvent toluene): 2 vol cold
